Legend:
[1] = test system: HT-29; experiment: Anticancer activity against human HT-29 cells assessed as inhibition of cell proliferation by MTT assay; format: functional, cell-based
[2] = test system: HCT-116; experiment: Anticancer activity against human HCT-116 cells assessed as inhibition of cell proliferation by MTT assay; format: functional, cell-based
[3] = test system: RKO; experiment: Anticancer activity against human RKO cells assessed as inhibition of cell proliferation by MTT assay; format: functional, cell-based
[4] = test system: LoVo; experiment: Anticancer activity against human LoVo cells assessed as inhibition of cell proliferation by MTT assay; format: functional, cell-based
[5] = test system: SW480; experiment: Anticancer activity against human SW480 cells assessed as inhibition of cell proliferation by MTT assay; format: functional, cell-based
[6] = test system: Huh-7; experiment: Anticancer activity against human Huh-7 cells assessed as inhibition of cell proliferation by MTT assay; format: functional, cell-based
[7] = test system: SK-HEP1; experiment: Anticancer activity against human SK-HEP1 cells assessed as inhibition of cell proliferation by MTT assay; format: functional, cell-based
[8] = test system: A549; experiment: Anticancer activity against human A549 cells assessed as inhibition of cell proliferation by MTT assay; format: functional, cell-based
[9] = test system: MGC-803; experiment: Anticancer activity against human MGC-803 cells assessed as inhibition of cell proliferation by MTT assay; format: functional, cell-based
[10] = Cytotoxicity against human WI-38 cells assessed as inhibition of cell proliferation by MTT assay; format: toxicity, cell-based
[11] = test system: HCT-116; experiment: Induction of apoptosis in human HCT-116 cells assessed as necrotic cells at 30 micromol/L incubated for 48 hrs by annexin V-FITC and propidium iodide staining based flow cytometry analysis (reference value: 0.88%); format: functional; details: dose 30 µmol/L, at 30 µM
[12] = test system: HCT-116; experiment: Induction of apoptosis in human HCT-116 cells assessed as late apoptotic cells at 30 micromol/L incubated for 48 hrs by annexin V-FITC and propidium iodide staining based flow cytometry analysis (reference value: 7.13%); format: functional; details: dose 30 µmol/L, at 30 µM
[13] = test system: HCT-116; experiment: Induction of apoptosis in human HCT-116 cells assessed as early apoptotic cells at 30 micromol/L incubated for 48 hrs by annexin V-FITC and propidium iodide staining based flow cytometry analysis (reference value: 2.69%); format: functional; details: dose 30 µmol/L, at 30 µM
[14] = test system: HCT-116; experiment: Induction of apoptosis in human HCT-116 cells assessed as viable cells at 30 micromol/L incubated for 48 hrs by annexin V-FITC and propidium iodide staining based flow cytometry analysis (reference value: 89.29%); format: functional; details: HCT-116, 48 h, dose 30 µmol/L, read-out: Activity

Row | Compound | IC50 [1] [µM] | IC50 [2] [µM] | IC50 [3] [µM] | IC50 [4] [µM] | IC50 [5] [µM] | IC50 [6] [µM] | IC50 [7] [µM] | IC50 [8] [µM] | IC50 [9] [µM] | IC50 [10] [µM] | Activity [11] [%] | Activity [12] [%] | Activity [13] [%] | viability at 30 µM [14] [%]
1 | C[C@H](CCC(=O)NCc1ccccc1O)[C@H]1CC[C@H]2[C@@H]3[C@H](O)C[C@@H]4C[C@H](O)CC[C@]4(C)[C@H]3C[C@H](O)[C@]12C | 32.7 | 36.3 | 48.5 | 51.1 | 35.9 | 63.7 | 25.4 | 40.5 | 42.3 | > 200 |  |  |  | 
2 | C[C@H](CCC(=O)OCc1cccc(O)c1)[C@H]1CC[C@H]2[C@@H]3CC[C@@H]4C[C@H](O)CC[C@]4(C)[C@H]3CC[C@]12C | 173 | 142 | 150 | 158 | 183 | 185 | 125 | > 200 | > 200 | > 200 |  |  |  | 
3 | C[C@H](CCC(=O)OCc1cccc(O)c1)[C@H]1CC[C@H]2[C@@H]3[C@@H](O)C[C@@H]4C[C@@H](O)CC[C@]4(C)[C@H]3CC[C@]12C | 58.8 | 54.2 | 68.8 | 44.9 | 99 | 152 | 155 | > 200 | 59.4 | > 200 |  |  |  | 
4 | C[C@H](CCC(=O)OCc1cccc(O)c1)[C@H]1CC[C@H]2[C@@H]3[C@H](O)C[C@@H]4C[C@H](O)CC[C@]4(C)[C@H]3CC[C@]12C | 33.6 | 42.3 | 128 | 40.9 | 42.8 | 124 | 99 | 69.4 | 49 | > 200 |  |  |  | 
5 | C[C@H](CCC(=O)O)[C@H]1CC[C@H]2[C@@H]3[C@H](O)C[C@@H]4C[C@H](O)CC[C@]4(C)[C@H]3C[C@H](O)[C@]12C [CHOLIC ACID] | > 200 | > 200 | > 200 | > 200 | > 200 | > 200 | > 200 | > 200 | > 200 |  |  |  |  | 
6 | Cc1ccc(COC(=O)CC[C@@H](C)[C@H]2CC[C@H]3[C@@H]4[C@H](O)C[C@@H]5C[C@H](O)CC[C@]5(C)[C@H]4CC[C@]23C)cc1 | 25.4 | 53.7 | 42.1 | 27.4 | 43.1 | 27.2 | 54.9 | 86.6 | 37.5 | > 200 |  |  |  | 
7 | C[C@H](CCC(=O)OCc1cccc(O)c1)[C@H]1CC[C@H]2[C@@H]3[C@H](O)C[C@@H]4C[C@H](O)CC[C@]4(C)[C@H]3C[C@H](O)[C@]12C | 24.3 | 33 | 47.6 | 28.7 | 39.3 | 102 | 61.8 | 47.8 | 54.9 | > 200 |  |  |  | 
8 | COC(=O)[C@H](CCSC)NC(=O)CC[C@@H](C)[C@H]1CC[C@H]2[C@@H]3[C@H](O)C[C@@H]4C[C@H](O)CC[C@]4(C)[C@H]3C[C@H](O)[C@]12C | 127 | 85.2 | 97.3 | 51.6 | 64.7 | 190 | 173 | > 200 | 96.9 | > 200 |  |  |  | 
9 | CC(=O)Oc1ccc(OC(=O)CC[C@@H](C)[C@H]2CC[C@H]3[C@@H]4[C@H](O)C[C@@H]5C[C@H](O)CC[C@]5(C)[C@H]4CC[C@]23C)cc1 | 56.3 | 149 | 142 | 76.9 | 100 | 60.7 | 85 | > 200 | 109 | > 200 |  |  |  | 
10 | CC(=O)Oc1ccc(OC(=O)CC[C@@H](C)[C@H]2CC[C@H]3[C@@H]4[C@@H](O)C[C@@H]5C[C@@H](O)CC[C@]5(C)[C@H]4CC[C@]23C)cc1 | 123 | 102 | 187 | 168 | > 150 | 185 | 177 | 187 | 111 | > 200 |  |  |  | 
11 | CC(=O)Nc1ccc(OC(=O)CC[C@@H](C)[C@H]2CC[C@H]3[C@@H]4[C@H](O)C[C@@H]5C[C@H](O)CC[C@]5(C)[C@H]4C[C@H](O)[C@]23C)cc1 | 53.3 | 54.3 | 36.3 | 58 | 38.7 | 70.4 | 41.1 | 59.4 | 36.7 | > 200 |  |  |  | 
12 | O=c1[nH]cc(F)c(=O)[nH]1 [FLUOROURACIL] | 17.5 | 32.3 | 12.7 |  | 21.9 | 1.06 | 12.5 | 109 | 6.06 |  | 0.59 | 69.38 | 2.13 | 27.9
13 | C[C@H](CCC(=O)O)[C@H]1CC[C@H]2[C@@H]3[C@@H](O)C[C@@H]4C[C@H](O)CC[C@]4(C)[C@H]3CC[C@]12C [URSODIOL] | > 200 | > 200 | > 200 | > 200 | > 200 | > 200 | > 200 | > 200 | > 200 |  |  |  |  | 
14 | C[C@H](CCC(=O)OCc1ccc([N+](=O)[O-])cc1)[C@H]1CC[C@H]2[C@@H]3[C@H](O)C[C@@H]4C[C@H](O)CC[C@]4(C)[C@H]3CC[C@]12C | 29.6 | 40.4 | 43.2 | 30.4 | 44.1 | 44.6 | 111 | 87.2 | 50.6 | > 200 |  |  |  | 
15 | C[C@H](CCC(=O)O)[C@H]1CC[C@H]2[C@@H]3CC[C@@H]4C[C@H](O)CC[C@]4(C)[C@H]3CC[C@]12C [LITHOCHOLIC ACID] | > 200 | > 200 | > 200 | > 200 | > 200 | > 200 | > 200 | > 200 | > 200 |  |  |  |  | 
16 | COc1cc(COC(=O)CC[C@@H](C)[C@H]2CC[C@H]3[C@@H]4[C@H](O)C[C@@H]5C[C@H](O)CC[C@]5(C)[C@H]4CC[C@]23C)cc(OC)c1 | 26 | 45 | 45.4 | 21.3 | 37.6 | 63.1 | 65.1 | 99.6 | 36.6 | > 200 |  |  |  | 
17 | C[C@H](CCC(=O)O)[C@H]1CC[C@H]2[C@@H]3[C@H](O)C[C@@H]4C[C@H](O)CC[C@]4(C)[C@H]3CC[C@]12C [CHENODIOL] | > 200 | > 200 | > 200 | > 200 | > 200 | > 200 | > 200 | > 200 | > 200 |  |  |  |  | 
